This is an account of results in US7153849B2, “Antidepressant arylpiperazine derivatives of hetrocycle-fused benzodioxans” (Wyeth, priority 2002, dated 2006).

In data set [1] the target is T1, cloned human 5HT1A receptors (Homo sapiens, UniProt P08908).
T1 construct: expressed in transfected cells
T1 sequence (P08908 1-422): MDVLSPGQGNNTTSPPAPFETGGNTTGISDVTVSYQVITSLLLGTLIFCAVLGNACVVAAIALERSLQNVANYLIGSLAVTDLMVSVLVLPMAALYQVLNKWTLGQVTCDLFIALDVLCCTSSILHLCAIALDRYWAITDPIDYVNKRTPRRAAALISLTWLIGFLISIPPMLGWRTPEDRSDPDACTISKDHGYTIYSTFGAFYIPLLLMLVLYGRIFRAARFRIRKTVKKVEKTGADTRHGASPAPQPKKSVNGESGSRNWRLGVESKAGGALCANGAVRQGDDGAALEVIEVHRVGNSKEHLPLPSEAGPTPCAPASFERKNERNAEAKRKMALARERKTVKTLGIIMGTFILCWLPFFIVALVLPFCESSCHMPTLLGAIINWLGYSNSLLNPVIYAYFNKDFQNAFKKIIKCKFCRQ
Briefly: 35S-GTPγS binding assay, 5HT1A antagonist activity. In kind it is biochemical. The following applies: for 5HT1A Function Imax: maximum inhibitory effect, vs 8-OH-DPAT, unit assumed; for IC50: reversal of 8-OH-DPAT (antagonist), read-out: 5HT1A Function IC50. The method, then: Antagonist activity at 5HT1A receptors was established by using a ^35S-GTPγS binding assay similar to that used by Lazareno and Birdsall (Br. J. Pharmacol. 109:1120, 1993), in which the test compound's ability to affect the binding of ^35S-GTPγS to membranes containing cloned human 5HT1A receptors was determined. Agonists produce an increase in binding whereas antagonists produce no increase but rather reverse the effects of the standard agonist 8-OH-DPAT. The test compound's maximum inhibitory effect is represented as the Imax, while its potency is defined by the IC50.
A general note: GTPγS resists hydrolysis and so accumulates on activated G proteins.

In a further data set the target is T2, serotonin transporter (Rattus norvegicus, UniProt P31652).
T2 construct: displace ^3H-paroxetine from male rat frontal cortical membranes; from tissue; host or cells: male rat frontal cortical membranes
Kind of data set: 3H-paroxetine displacement from rat frontal cortical membranes (serotonin transporter affinity). In kind it is binding. The settings on record: 3H-paroxetine, male rat frontal cortical membranes; for Ki: read-out: 5-HT Transporter Affinity Ki.

The target in another data set is T3, human 5HT1A receptors (Homo sapiens, UniProt P08908).
T3 construct: expressed in transfected cells; host or cells: CHO cells
T3 sequence (P08908 1-422): T1 sequence (P08908 1-422)
Briefly: [3H] 8-OH-DPAT displacement from 5HT1A receptor in stably transfected CHO cells. In kind it is binding. The settings on record: CHO cells with human 5HT1A; for Ki: read-out: 5HT1A Receptor Affinity Ki. From the text: High affinity for the serotonin 5HT1A receptor was established by testing the claimed compound's ability to displace [^3H] 8-OH-DPAT (dipropylamino-tetralin) from the 5HT1A serotonin receptor following a modification of the procedure of Hall et al., J. Neurochem. 44, 1685 (1985) which utilizes CHO cells stably transfected with human 5HT1A receptors.

T2 sequence (P31652 whole entry): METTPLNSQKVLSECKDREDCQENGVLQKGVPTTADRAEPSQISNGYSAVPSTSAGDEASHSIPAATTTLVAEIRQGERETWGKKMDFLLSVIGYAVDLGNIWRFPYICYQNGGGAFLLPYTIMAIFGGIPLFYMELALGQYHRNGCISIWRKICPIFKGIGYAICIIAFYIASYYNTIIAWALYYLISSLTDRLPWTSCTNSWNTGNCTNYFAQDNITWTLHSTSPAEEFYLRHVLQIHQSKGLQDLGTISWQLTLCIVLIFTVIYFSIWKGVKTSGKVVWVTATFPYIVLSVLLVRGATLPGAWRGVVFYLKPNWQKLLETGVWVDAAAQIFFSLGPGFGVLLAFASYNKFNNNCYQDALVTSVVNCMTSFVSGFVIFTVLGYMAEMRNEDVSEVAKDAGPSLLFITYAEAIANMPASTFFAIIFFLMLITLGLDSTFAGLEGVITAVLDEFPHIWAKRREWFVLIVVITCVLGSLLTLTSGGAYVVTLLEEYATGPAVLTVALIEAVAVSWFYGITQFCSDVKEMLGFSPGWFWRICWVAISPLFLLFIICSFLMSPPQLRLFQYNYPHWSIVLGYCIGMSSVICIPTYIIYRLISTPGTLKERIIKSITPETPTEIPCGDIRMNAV

For the compound `Cc1ccc2c3c(ccc2n1)OC[C@H](CN1CCN(c2cccc(C(F)(F)F)c2)CC1)O3` [Example 8, (2S)-8-methyl-2-[4-(3-trifluoromethyl-phenyl)piperazin-1-ylmethyl]-2,3-dihydro[1,4]dioxine[2,3-f]quinoline], the melting point (usually the temperature, or range, at which the solid turns liquid) was in the range of 123 to 124 °C. Further, in data set [1], the 5HT1A Function Imax was 100% and the 50% inhibitory concentration (IC50) (commonly the concentration needed to halve the response being measured) was determined as 3110 nM. Besides, the Ki – broadly, the equilibrium dissociation constant of an inhibitor or competing ligand from its target – on serotonin transporter stood at 21.6 nM. In addition, the Ki on human 5HT1A receptors amounted to 31.4 nM.

On to `Cc1ccc2c3c(ccc2n1)OC[C@H](CN1CCN(c2ccc4ccccc4n2)C[C@@H]1C)O3` [Example 19, (2S)-8-methyl-2-{[(2S)-2-methyl-4-quinolin-2-ylpiperazin-1-yl]methyl}-2,3-dihydro[1,4]dioxino[2,3-f]quinoline], for which the melting point fell in the range of 141 to 144 °C. In addition, in data set [1], the 5HT1A Function Imax was determined as 90% and the IC50 stood at 3000 nM. Further, on serotonin transporter, the Ki was determined as 123 nM. For the same compound, the Ki at human 5HT1A receptors was 167 nM.

The compound `COc1cccc(N2CCN(C[C@H]3COc4ccc5nc(C)ccc5c4O3)CC2)c1` [Example 5, (2S)-2-{[4-(3-methoxyphenyl)piperazin-1-yl]methyl}-8-methyl-2,3-dihydro[1,4]dioxino[2,3-f]quinoline] came in with a melting point of 90 to 91 °C. Also, in data set [1], the 5HT1A Function Imax was found to be 84% and the IC50 was 1720 nM. The Ki on serotonin transporter was 35.5 nM. On human 5HT1A receptors, the “5HT1A Receptor Affinity, % @ 1 μM” value was 80% @ 1 μM.

For the compound `Cc1ccc2c3c(ccc2n1)OC[C@H](CN1CCN(c2ccc4ccccc4n2)C[C@H]1C)O3` [Example 21, (2S)-8-methyl-2-{[(2R)-2-methyl-4-quinolin-2-ylpiperazin-1-yl]methyl}-2,3-dihydro[1,4]dioxino[2,3-f]quinoline], the melting point was in the range of 78 to 82 °C. Besides, in data set [1], the 5HT1A Function Imax was 83.5% and the IC50 is 867 nM. Besides, the Ki at serotonin transporter was found to be 32.8 nM. For the same compound, the Ki on human 5HT1A receptors is 5.53 nM.

`Cc1ccc2c3c(ccc2n1)OC[C@H](CN1CCN(c2cccc(C)c2C)CC1)O3` [Example 10, (2S)-2-{[4-(2,3-dimethylphenyl)piperazin-1-yl]methyl}-8-methyl-2,3-dihydro[1,4]dioxino[2,3-f]quinoline] gave a melting point of 112 to 113 °C. In data set [1], the 5HT1A Function Imax worked out at 98% and the IC50 is 403 nM. Besides, the Ki on serotonin transporter was determined as 88.5 nM. On human 5HT1A receptors, the Ki stood at 82.5 nM.

`COc1ccc(N2CCN(C[C@H]3COc4ccc5nc(C)ccc5c4O3)CC2)cc1` [Example 6, (2S)-2-{[4-(4-methoxyphenyl)piperazin-1-yl]methyl}-8-methyl-2,3-dihydro[1,4]dioxino[2,3-f]quinoline] registered a melting point of 164 to 165 °C. In addition, in data set [1], the 5HT1A Function Imax is 37% and the IC50 was 3940 nM. Besides, the “5-HT Transporter Affinity, % @ 1 μM” value on serotonin transporter is on record as 0% @ 1 μM. The “5HT1A Receptor Affinity, % @ 1 μM” value at human 5HT1A receptors is on record as 81% A1 μM.

Compound `COc1cccc2c(N3CCN(C[C@H]4COc5ccc6nc(C)ccc6c5O4)CC3)coc12` [Example 16, (2S)-2-{[4-(7-methoxy-1-benzofuran-3-yl)-1-piperazinyl]methyl}-8-methyl-2,3-dihydro[1,4]dioxino[2,3-f]quinoline] came in with a melting point of 56 °C. Further, the Ki at serotonin transporter came to 266 nM. Moreover, the Ki on human 5HT1A receptors came out at 28.5 nM.

Consider `COc1ccccc1N1CCN(C[C@H]2COc3ccc4nc(C)ccc4c3O2)CC1` [Example 4, (2S)-2-{[4-(2-methoxyphenyl)piperazin-1-yl]methyl}-8-methyl-2,3-dihydro[1,4]dioxino[2,3-f]quinoline], for which the melting point was in the range of 44 to 47 °C. In addition, in data set [1], the 5HT1A Function Imax was determined as 87% and the IC50 stood at 994 nM. In addition, on serotonin transporter, the “5-HT Transporter Affinity, % @ 1 μM” value amounted to 34% @ 1 μM. For the same compound, the “5HT1A Receptor Affinity, % @ 1 μM” value at human 5HT1A receptors came out at 95% @ 1 μM.
